From patent US11076598B2, “Peroxide-based disinfecting solutions containing inorganic salts” (Diversey, Inc., priority 2017, dated 2021)

Experiment: Antimicrobial efficacy of the inorganic salt on its own
Conditions: salt alone at the concentration employed in the solutions

With `[Cl-].[Na+]` [sodium chloride] the “antimicrobial efficacy of the salt on its own” value was “no antimicrobial efficacy on its own”.

In the case of `N.N.O=S(=O)(O)O` [ammonium sulphate], the “antimicrobial efficacy of the salt on its own” value is reported as “no antimicrobial efficacy on its own”.
